Measured values published in patent publication US5993815A, “Methods and compositions for inhibiting the activation of thrombin-activatable fibrinolysis inhibitor (TAFI)” (University of Vermont, priority 1997, dated 1999).

Key:
Assay type in all cases: biochemical
[1] = target: T1, thrombin in complex with thrombomodulin (activation of purified human TAFI) (Homo sapiens, UniProt P00734); assay: two-stage TAFI activation assay, chromogenic substrate hippuryl arginine; settings: FPA-CK 50 nmol/L present during incubation of TAFI with thrombin and thrombomodulin, 10 minutes at 22° C.
T1 construct: Prothrombin was purified as described previously and used to prepare thrombin; made in house
Method: In a 25-μL reaction volume, TAFI zymogen (0.8 μmol/L final concentration) is incubated with thrombomodulin (40 nmol/L final concentration), Ca^2+ (5.0 mmol/L final concentration), and thrombin (8.0 nmol/L final concentration) in the presence and absence of the putative peptide for 10 minutes at 22° C. Thrombin is then inhibited by the addition of the Phe-Pro-Arg chloromethyl ketone (FPA-CK 50 nmol/L final concentration). […] A negative control may be used by adding FPA-CK at the initiation of the reaction. In the negative control TAFI is not activated because the thrombin is inhibited from functioning. […] The time course of hippuric acid formation is measured by first correcting the volume in each of the reactions by the addition of a volume of buffer equal to that of the added putative peptide. […] The time course of hippuric acid formation at 22° C. is followed by monitoring absorbance at 254 nm and 0.5 minute intervals using a spectrophotometer such as Beckman DU-65 spectrophotometer (Fullteron, Calif.).
Hydrolysis of the chromogenic substrate, hipurryl arginine, was used to determine whether MoAbTAFI#16 inhibits active TAFI. […] The time course of hippuric acid formation at 22° C. was followed by monitoring absorbance at 254 nm and 0.5 minute intervals using a Beckman DU-65 spectrophotometer (Fullteron, Calif.). […]

[2] = target: T2, active TAFI (thrombin-activatable fibrinolysis inhibitor, plasma carboxypeptidase B) in clots formed from normal human plasma (Homo sapiens, UniProt Q96IY4); assay: turbidometric tPA-induced lysis assay of clots formed from normal human plasma (NHP); settings: tPA 294 pmol/L, 37° C., TAFI-dependent profibrinolytic effect, read-out: EC50 (shortening of lysis time)
T2 construct: tissue Haematologic Technologies Inc. (Burlington, Vt.); host or cells: pooled (3 to 4 donors) fresh frozen human plasma
T2 sequence (Q96IY4 115-423): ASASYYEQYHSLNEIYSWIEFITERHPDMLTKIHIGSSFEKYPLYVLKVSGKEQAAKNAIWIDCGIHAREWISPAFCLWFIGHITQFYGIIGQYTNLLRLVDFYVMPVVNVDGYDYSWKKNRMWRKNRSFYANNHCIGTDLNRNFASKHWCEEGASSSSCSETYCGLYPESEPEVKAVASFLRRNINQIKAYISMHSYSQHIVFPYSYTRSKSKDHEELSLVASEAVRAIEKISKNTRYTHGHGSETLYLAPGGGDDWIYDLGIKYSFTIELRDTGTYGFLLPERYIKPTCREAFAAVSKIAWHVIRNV
Method: (§1) Preparation of plasma for lysis assays. Pooled (3 to 4 donors) fresh frozen human plasma was purchased from Haematologic Technologies Inc. (Burlington, Vt.) and dialyzed against 4 L of 20 mmol/L HEPES, 150 mmol/L NaCl, pH 7.4 (HBS) at 4° C. with 4 changes overnight. The dialysate, termed normal human plasma (NHP), was stored at -70° C. in 2.0-mL aliquots. TAFI-deficient plasma (TdP) was produced by passing an aliquot, maximally 50 mL, of NHP over a 2.0-mL anti-TAFI affinity column (MoAbTAFI#16-Sepharose 4B) equilibrated in HBS. Depletion of TAFI was verified by Western blot analysis of a sample from each individual fraction. Only the flow-through fractions depleted of TAFI with an A280 equal to the NHP loaded onto the column were pooled and subsequently stored in 2.0 mL aliquots at -70° C. Pooled plasma samples were also subjected to Western blotting and TAFI concentrations were quantified by ELISA.
(§2) Lysis assay. […] After adding the plasma to the microtiter wells, the plate was transferred to a THERMOMAX microtiter plate reader (Molecular Devices). Temperature was maintained at 37° C. and the turbidity was monitored at 405 nm and 2.5-minute intervals. […]
(§3) 3. […] The TAFI-dependent profibrinolytic effect of each compound was evaluated by determination of lysis time of clots formed from both NHP and TdP in the presence of various concentrations of each inhibitor. […]

[3] = system: clots formed from TAFI-deficient human plasma (TdP); assay: turbidometric tPA-induced lysis assay of clots formed from TAFI-deficient plasma (TdP); settings: every concentration studied; lysis time approximately 50 minutes
Method: as §1, §2, §3

| EC50 [2] | SMILES | active TAFI activity generated [1] | effect on lysis time of clots formed from TdP [3] |
| --- | --- | --- | --- |
| – | N=C(N)NCCC[C@H](NC(=O)[C@@H]1CCCN1C(=O)[C@@H](N)Cc1ccccc1)C(=O)CCl [FPA-CK, Phe-Pro-Arg chloromethyl ketone] | No active TAFI activity was generated | – |
| 90 µM | N=C(N)NCCSC(CC(=O)O)C(=O)O (stereo not drawn) [GEMSA, 2-Guanidinoethylmercaptosuccinic acid] | – | did not affect lysis time |
